From BindingDB's records for patent US12454530 (Chiesi Farmaceutici, 2025) come the findings set out here.

SMILES strings stand for the structures. Some results are limits rather than exact numbers.

The target of this assay is Lysophosphatidic acid receptor 1 (Homo sapiens, UniProt Q92633). Briefly: In Vitro Assay. As for the experimental part:
CHO-hLPA1 cell lines are cultured in a humidified incubator at 5% CO2 in DMEM/F-12 (1:1) MIXTURE with 2 mM Glutamax, supplemented with 10% of Foetal Bovine Serum, 1 mM Sodium Pyruvate, 11 mM Hepes and 1× Penicillin/Streptomycin. […] Serial dilutions (1:3 or 1:4, 11 points CRC) of compounds are performed in 100% DMSO at 200× the final concentration. […] The final concentration of DMSO in the assay will be 0.5% in each well. Medium is removed by aspiration and cells are then incubated with 30 μl of a loading solution containing 5 μM of the cytoplasmic Ca2+ indicator Cal-520 AM in Assay Buffer containing 2.5 mM probenecid for 30 min at 37° C. incubator (cell loading). The loaded cell plates are transferred into the FLIPR instrument and calcium responses are monitored during the on-line addition protocols. For testing of compounds, after the cell loading, 10 μl/well of 4× antagonists' solution was added onto the cells. After 30 min pre-incubation (at 37° C.), 10 μl/well of 5× concentrated LPA EC80 was added and Ca2+ mobilization responses was followed during the on-line addition protocol. Intracellular peak fluorescence values subtracted by baseline fluorescence are exported and analysed to determine IC50 values, respectively.

As a reminder, the IC50 is the concentration at which inhibition is half-maximal. Lower therefore signals higher potency.

Sequence of Lysophosphatidic acid receptor 1 (Q92633 whole entry): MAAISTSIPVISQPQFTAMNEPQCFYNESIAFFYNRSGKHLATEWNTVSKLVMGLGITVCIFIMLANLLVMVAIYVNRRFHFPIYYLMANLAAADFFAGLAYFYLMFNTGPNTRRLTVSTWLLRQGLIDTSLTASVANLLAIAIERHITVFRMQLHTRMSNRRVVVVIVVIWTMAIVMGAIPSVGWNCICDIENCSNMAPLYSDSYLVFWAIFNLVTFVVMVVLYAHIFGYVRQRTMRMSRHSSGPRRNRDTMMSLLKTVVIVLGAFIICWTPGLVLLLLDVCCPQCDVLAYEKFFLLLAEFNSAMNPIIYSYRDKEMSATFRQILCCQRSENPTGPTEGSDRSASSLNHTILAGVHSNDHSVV

Take `Cc1ccccc1[C@@H](C)OC(=O)Nc1c(C)noc1-c1ccc(NC(=O)[C@H]2CCCC[C@@H]2C(=O)O)c(C)n1` [US12454530, Example 32]: the IC50 is under 0.05 µM.
